# Data taken from patent publication US20180289780A1, “OSTEOPONTIN AND THROMBIN-CLEAVED FRAGMENT THEREOF AND THEIR USE IN ATHEROSCLEROSIS PREVENTION, INFLAMMATION REDUCTION AND IMPROVING PLAQUE STABILITY” (CardioVax, LLC, priority 2017, published 2018).
# Experiments:
# [1] = system: tcOPN-PADRE peptide, PADRE peptide, tcOPN protein or OPN protein; test: Antibody ELISA on plasma of immunized mice; type: in vivo; details: plasma of immunized ApoE-/- mice
# Method: tcOPN-PADRE peptide, PADRE peptide, tcOPN protein or OPN protein was used for coating (20 μg/mL of each in PBS) microtiter plates (Nunc MaxiSorp, Nunc) over night at 4° C. Coated plates were washed with PBS with 0.05% Tween-20 and thereafter blocked with SuperBlock in Tris-buffered saline (TBS, Pierce) during 30 minutes at room temperature (RT) followed by an incubation of mouse plasma diluted 1:100 or 1:1000 in PBS-0.05% Tween-20 for 2 hours at RT. After rinsing, bound antibodies were detected using biotinylated goat anti-mouse IgGla or IgG2 antibodies (Jackson ImmunoResearch) that were incubated for 2 hours at RT. After washing, alkaline phosphatase-conjugated streptavidin (Sigma) was added and color reaction was developed using phosphatase substrate kit (Pierce). The absorbance (405 nm) was measured after 1 hour of incubation at room temperature. Mean values were calculated after subtraction of background absorbance.
# [2] = system: ApoE-/- mice; test: Plasma cytokine levels (Bioplex multiplex) in immunized ApoE-/- mice on HFD; type: in vivo; details: mean ± SD
# Text: (§1) Female C57BL/6 Apoe^-/- mice (Jaxmice, USA) were immunized with tcOPN-PADRE or equal amounts of PADRE peptide using Alum (Pierce) as adjuvant, followed by two booster injections after two and five weeks (FIG. 1B). During the advanced study all mice received a final booster one weak prior to termination in order to analyze the effect on immune cells (FIG. 1B). Mice were fed a high-fat diet (HFD), 21% cocoa fat, 0.15% cholesterol, starting one week after the last booster injection. For early assessment of atherosclerosis mice were kept on HFD during 8 weeks before sacrifice. Mice that were allowed to develop a more advanced stage of atherosclerosis were kept on HFD during 15 weeks (FIG. 1B). For early atherosclerosis assessment two different lengths of immunized tcOPN-PADRE peptides (SEQ ID Nos: 6 and 7) were evaluated, while for advanced atherosclerosis assessment mice were immunized with shorter tcOPN-PADRE (SEQ ID No: 6) which was based on a tcOPN of 11 amino acids (SEQ ID NO: 4). Tissue was preserved as described previously. All animal experiments were approved by the Animal Care and Use Committee. Cytokine levels for IL-1β, IL-2, IL-4, IL-5, IL-6, IL-10, IL-13, IL-17, IL-12(p70), IFNγ, TNFα and MCP-1 were analyzed in plasma using Bioplex multiplex technology (Bio-Rad) according to manufacturer's protocol. Plasma levels for OPN and tcOPN were analyzed by ELISA according to manufacturer's protocol (IBL International). Plasma cholesterol was quantified colorimetrically using Infinity Cholesterol (ThermoTrace).
# [3] = system: ApoE-/- mice; test: Atherosclerotic plaque area: en face descending aorta, aortic arch, subvalvular lesions; type: in vivo; details: additional early study, short peptide, HFD 8 weeks
# Text: as §1, with “All animal experiments were approved by the Animal Care and Use Committee.” left out, “Plasma cholesterol was quantified colorimetrically using Infinity Cholesterol (ThermoTrace).” left out
# [4] = system: Blood monocytes from ApoE-/- mice (CD11b+); test: Transwell migration assay, blood monocytes; type: cell-based; details: 10 ng/ml in lower chamber, 2 hours, vs buffer alone
# Method: (§2) Monocyte cell migration was quantified in 24-well transwell inserts with polycarbonate filters (8-μm pore size) (Corning Costar). THP-1 monocytes (0.5×10^4 in 100 μl of RPMI 1640 medium) or murine blood cells from ApoE^-/- mice (25 μl in 75 μl of RPMI 1640 medium) were added to the upper chamber of the insert. The lower chamber contained 600 μl of RPMI 1640 with or without 10ng/ml tcOPN or OPN protein. The plates were incubated at 37° C. in 5% CO2 during 2 hours and migrated cells in the lower chamber were counted using flow cytometry. Blood monocytes were characterized with the monocyte FACS panel described above. In blocking experiment, tcOPN protein were pre-incubated with plasma (dilution 1:100) pooled from PADRE ctrl mice or tcOPN-PADRE mice over night at 4° C. prior to the migration experiment.
# [5] = system: human monocyte THP-1 cells; test: Transwell migration assay, THP-1; type: cell-based; details: 10 ng/ml in lower chamber, 2 hours, vs buffer alone or full-length OPN
# Method: as §2
substance,measurement,setting,value
AKFVAAWTLKAAA (PADRE),Antibodies (IgG) against the tcOPN-PADRE peptide,[1],did not develop antibodies
same,Antibodies recognizing PADRE peptide,[1],low levels
same,Plasma IFNγ,[2]; 8 week HFD,312 ± 225 pg/mL
same,Plasma IL-2,[2]; 8 week HFD,45 ± 15 pg/mL
same,Plasma IL-5,[2]; 8 week HFD,111 ± 56 pg/mL
same,Plasma IL-6,[2]; 8 week HFD,33 ± 35 pg/mL
same,Plasma IL-10,[2]; 8 week HFD,77 ± 32 pg/mL
same,Plasma IL-13,[2]; 8 week HFD,234 ± 129 pg/mL
same,Plasma IL-17,[2]; 8 week HFD,162 ± 62 pg/mL
same,Plasma TNFα,[2]; 8 week HFD,26 ± 0 pg/mL
same,Plasma MCP-1,"[2]; 8 week HFD, * significant difference PADRE vs tcOPN-PADRE",835 ± 187 pg/mL
same,Plasma IFNγ,[2]; 15 week HFD,48 ± 24 pg/mL
same,Plasma IL-2,[2]; 15 week HFD,43 ± 21 pg/mL
same,Plasma IL-4,[2]; 15 week HFD,21 ± 7 pg/mL
same,Plasma IL-5,[2]; 15 week HFD,110 ± 32 pg/mL
same,Plasma IL-6,[2]; 15 week HFD,28 ± 11 pg/mL
same,Plasma IL-10,[2]; 15 week HFD,172 ± 64 pg/mL
same,Plasma IL-13,[2]; 15 week HFD,1153 ± 439 pg/mL
same,Plasma IL-17,[2]; 15 week HFD,148 ± 27 pg/mL
same,Plasma MCP-1,[2]; 15 week HFD,703 ± 386 pg/mL
same,Plasma TNFα,[2]; 15 week HFD,712 ± 249 pg/mL
AKFVAAWTLKAAAGRGDSLAYGLR (PADRE-tcOPN short) [short tcOPN-PADRE peptide],"Plaque area in the aortic arch, en face preparations",[3],smaller plaque area
same,Subvalvular plaque area,[3],recapitulated the difference
"tcOPN: recombinant OPN cleaved with thrombin, C-terminal fragment removed (SLAYGLR)",Monocyte migration towards the protein,[4],increased migration
same,Monocyte migration towards the protein,[5],increased migration
